Measured values taken from patent US7335682B2, “Pharmaceutical compositions and methods for treating immune-response associated diseases of the surface and the anterior segment of the eye” (The Zhongshan Opthalmic Center, priority 2000, dated 2008).
Read-outs that look alike come from different tables or passages of the source.

Columns and labels:
[1] = cited from earlier work
immunosuppression = conditions: in vitro; cited from earlier work
[2] = system: immune-response related ocular surface diseases; assay: Further clinical observations with topical tacrolimus in immune ocular diseases; assay type: in vivo, patients
[3] = system: immune rejection of allotypic cornea transplantation; conditions: rat; for effect on immune rejection in allotypic cornea transplantation: superficial (ocular surface) administration
[4] = system: immune rejection in high risk cornea transplantation; assay: Clinical study of suppression of immune rejection in high risk cornea transplantation
From the text: Fifty-six high risk patients (56 eyes) who needed operation for cornea transplantation were randomly divided into a treatment group and a control group, each having […] patients. […] Average time for follow-up survey was 5½ months. The main criteria for clinical valuation include visual function, lasting time for transparency, new angiopoiesis, swelling, opaque degree of transplanted corneas after operation.
56 high risky patients (56 eyes) who need operation for cornea transplantation were chosen in this study with 32 eyes from male and 24 from female. The average age was 31 (19-66). Of which 27 eyes were carried for full cornea transplantation, 14 for full cornea transplantation with scleral ring, 10 eyes with angiopoiesis cornea were used for cornea transplantation, and 10 for multiple transplantations. Blindness was caused by pyogenic infection of eyes (30 eyes), severe chemical injury (18 eyes), and thermal burn (8 eyes).
The control medicine CsA was a product of Swiss Sandoz pharmaceuticals which was diluted to 1% eye drops with oleum ricini. Corticosteroid eye drops was also purchased commercially.
The above cases were randomly divided into treatment group and control group with each having 28 eyes. […] Medicines were given 3 days after surgery, continuing 3-9 months, follow-up survey was 5½ months.
Observation was done twice a week within 1-3 months after medication, then once a week after 3 months. The items for observation were vision and transplanted corneas (including three criteria: new angiopoiesis, swelling, opacity of transplanted corneas). The scores for each criterion are as follows: new angiopoiesis has grades 0-3, grade 0 indicates no new angiopoiesis (0 score), grade 1 a few new angiopoiesis focusing on transplanted corneas and starting penetration the edges of transplantation (1 score), grade 2 a few new angiopoiesis focusing on center of the transplanted corneas (2 scores), grade 3 a great numbers of new angiopoiesis fully covering the whole transplanted corneas (3 scores). The swelling contains grades 0-3, grade 0 means no swelling (0 score), grade 1 light swelling (1 score), grade 2 medium swelling (2 scores), grade 3 severe swelling (3 scores). […] Rejection index (RI) is a sum of the previous 3 criteria. When RI=5 scores it is considered rejection. The study would not cover the following conditions: epithelium had reaction of rejection, complication happened during operation, and swelling and dissolution of transplanted corneas occurred after operation due to a functional failure of implanted cornea endothelia, lesion fissure, secondary glaucoma, infection of transplantation.
All operations on patients in the study were done by professors in the Department of Corneal Diseases. Donor corneas were all freshly obtained from adults. Specific people were assigned for follow-up survey after surgery. t-test, u-test, and analysis of variance were carried out on the data using commercially available software.

Row | Compound | terminal elimination half-life ([1]; healthy volunteers) [h] | absorption half-life ([1]; oral dose, measured in 16 patients) [h] | terminal elimination half-life ([1]; transplant patients) [h] | effect on immunosuppression relative to CsA (immunosuppression) | conjunctive inflammation non-responsive to CsA treatment ([2]; 17 cases, topical administration) | recurrence of recurring erosive corneal ulcer ([2]; 26 cases, five months to two years, topical) | rejection reaction in cornea transplantation ([2]; 64 cases, most of them, topical) | effect on Type I and IV hypersensitive reactions ([2]; topical administration) | effect on Types II and III hypersensitive reactions (e.g. Steven Johnson Syndrome) ([2]; topical administration) | effect on re-construction of ocular surface and obstinate and immune corneal diseases ([2]; topical administration) | effect on immune rejection in allotypic cornea transplantation [3] | effect on immune rejection in allotypic cornea transplantation ([3]; listed as Tecolimus) | effect on swelling of transplanted corneas in early phase ([3]; superficial administration) | final rate of rejection to the transplantation ([4]; 28 eyes per group, RI=5 counted as rejection, follow-up 5½ months) [%] | maintenance time for transparency in transplanted corneas after surgery ([4]; 28 eyes per group, eye drops four times a day with TOBRA DEX) [days] | eyes with final vision (=0.05 for FK-506, =0.5 for CsA as printed) ([4]; 28 eyes per group, with TOBRA DEX, follow-up 5½ months) [%] | new angiopoiesis, swelling, opaqueness and RI values of cornea transplantation ([4]; during follow-up survey) | adverse reactions (twinges, itches, toxic reactions on cornea epithelia) ([4]; topical eye drops, patients) | effect on inflammation in early phase ([3]; superficial administration) | inhibition of new angiopoiesis after cornea transplantation ([3]; superficial administration)
1 | C=CC[C@@H]1/C=C(\C)C[C@H](C)C[C@H](OC)[C@H]2O[C@@](O)(C(=O)C(=O)N3CCCC[C@H]3C(=O)O[C@H](/C(C)=C/[C@@H]3CC[C@@H](O)[C@H](OC)C3)[C@H](C)[C@@H](O)CC1=O)[C@H](C)C[C@@H]2OC.O [tacrolimus, Tacrolimus] | 21.2 | 5.7 ± 4.6 | 11.7 ± 3.9 | 10-100 folds | successfully controlled | only three cases had recurrence | significantly reduced rejection reaction | significant therapeutic effects | some, but not complete therapeutic effect | excellent clinical effects | clear inhibition | clearly therapeutic effects | worse therapeutic effects | 60.8 | 70.4 ± 18.32 | 39.3 | much better than the CsA group | No patient showed adverse reactions | – | –
2 | C[C@@H]1C[C@H]2[C@@H]3CCC4=CC(=O)C=C[C@]4(C)[C@@]3(F)[C@@H](O)C[C@]2(C)[C@@]1(O)C(=O)CO [corticosteroid, dexamethasone] | – | – | – | – | – | – | – | – | – | – | – | – | – | – | – | – | – | – | strong inhibition effect | strongest effect
